US20130345177A1, “Oleyl Phosphocholine for the Treatment of Mycosis” (DAFRA PHARMA RESEARCH & DEVELOPMENT BVBA, priority 2011, published 2013)
≈ marks a conversion by molar mass, not a printed value.

Assays:
[1] = system: Scedosporium prolificans IHEM 22387 (clinical blood isolate); assay: CLSI broth dilution antifungal susceptibility (microplates); format: cell-based; settings: 48 hours of incubation; for MIC: Lomentospora prolificans, read-out: MIC100 (48 h)
Protocol: (§1) The above strains were contacted with oleyl phosphocholine on microplates and the anti-fungal activity of oleyl phosphocholine was determined. In comparison, the same test was performed using amphotericin B (AMB), voriconazole (VRZ) and itraconazole (ITR). The test protocol used was in conformity with the standard CLSI method: Clinical and Laboratory Standards Institute/National Committee for Clinical Laboratory Standards (2002) Reference method for broth dilution antifungal susceptibility testing of yeasts. […] Clinical and Laboratory Standards Institute/National Committee for Clinical Laboratory Standards Institute, Wayne Pa. Clinical and Laboratory Standards Institute/National Committee for Clinical Laboratory Standards. (2002) Reference method for broth dilution antifungal susceptibility testing of filamentous fungi. Approved Standard document M38-A. Clinical and Laboratory Standards Institute/National Committee for Clinical Laboratory Standards Institute, Wayne […]

[2] = system: Aspergillus niger IHEM 5788 (ATCC 10864); assay: as above; format: cell-based; settings: for MIC100 (48 h): 48 hours of incubation; for MIC: ATCC10864, 48 hours of incubation, read-out: MIC100 (48 h)
Protocol: as §1

[3] = system: Aspergillus fumigatus IHEM 18963 (NCPF 7367); assay: as above; format: cell-based; settings: for MIC100 (48 h): 48 hours of incubation; for MIC: NCPF7367, 48 hours of incubation, read-out: MIC100 (48 h)
Protocol: as §1

[4] = system: Candida albicans IHEM 3731 (ATCC 10231); assay: as above; format: cell-based; settings: for MIC100 (48 h): 48 hours of incubation, inhibits growth of 100%; for MIC50: ATCC10231, 48 hours of incubation, inhibits growth of 50%
Protocol: as §1

[5] = system: Candida krusei IHEM 9560 (ATCC 6258); assay: as above; format: cell-based; settings: for MIC100 (48 h): 48 hours of incubation, inhibits growth of 100%; for MIC50: Pichia kudriavzevii, ATCC6258, 48 hours of incubation, inhibits growth of 50%
Protocol: as §1

[6] = system: Candida glabrata IHEM 19371 (clinical blood isolate); assay: as above; format: cell-based; settings: 48 hours of incubation; for MIC100 (48 h): inhibits growth of 100%; for MIC50: Nakaseomyces glabratus, inhibits growth of 50%
Protocol: as §1

[7] = system: Aspergillus terreus IHEM 13669 (clinical isolate); assay: as above; format: cell-based; settings: 48 hours of incubation; for MIC: read-out: MIC100 (48 h)
Protocol: as §1

[8] = system: Fusarium solani IHEM 18489 (clinical isolate); assay: as above; format: cell-based; settings: 48 hours of incubation; for MIC: read-out: MIC100 (48 h)
Protocol: as §1

[9] = system: Candida parapsilosis IHEM 3270 (ATCC 22019); assay: as above; format: cell-based; settings: for MIC100 (48 h): 48 hours of incubation, inhibits growth of 100%; for MIC50: Lodderomyces parapsilosis, ATCC22019, 48 hours of incubation, inhibits growth of 50%
Protocol: as §1

Candida yeast = settings: patients with culture-proven candidemia; cited from earlier work
[10] = system: Candida albicans IHEM 19114 (clinical blood isolate resistant for voriconazole and itraconazole); assay: CLSI broth dilution antifungal susceptibility (microplates); format: cell-based; settings: Candida albicans IHEM 19114 (resistant), 48 hours of incubation; for MIC100 (48 h): inhibits growth of 100%; for MIC50: inhibits growth of 50%
Protocol: The following ten strains were tested for assaying the anti-fungal activity of oleyl phosphocholine.
The above strains were contacted with oleyl phosphocholine on microplates and the anti-fungal activity of oleyl phosphocholine was determined. In comparison, the same test was performed using amphotericin B (AMB), voriconazole (VRZ) and itraconazole (ITR).
The test protocol used was in conformity with the standard CLSI method:
Clinical and Laboratory Standards Institute/National Committee for Clinical Laboratory Standards (2002) Reference method for broth dilution antifungal susceptibility testing of yeasts. Approved Standard document M27-A2. Clinical and Laboratory Standards Institute/National Committee for Clinical Laboratory Standards Institute, Wayne Pa. Clinical and Laboratory Standards Institute/National Committee for Clinical Laboratory Standards. (2002) Reference method for broth dilution antifungal susceptibility testing of filamentous fungi. Approved Standard document M38-A. Clinical and Laboratory Standards Institute/National Committee for Clinical Laboratory Standards Institute, Wayne
The results, after visual and spectrophometric reading after 48 hours of incubation, are presented as MIC50 and MIC 100, i.e. the minimum inhibitory concentration required inhibiting the growth of 50% or 100% of the microorganisms, respectively.

[11] = people taking itraconazole; cited from earlier work
[12] = system: Fusarium oxysporum IHEM3014; assay: In vitro efficacy against yeasts and fungi (microplates); format: cell-based
Protocol: (§2) The above strains were contacted oleyl phosphocholine on microplates and the anti-fungal activity of oleyl phosphocholine was determined. Anti-fungal activity was expressed as IC50, i.e. the concentration oleyl phosphocholine needed to kill 50% of the pathogens.

[13] = system: Fusarium solani IHEM22128; assay: as above; format: cell-based
Protocol: as §2

[14] = system: Candida albicans B63195 (S); assay: as above; format: cell-based
Protocol: as §2

Aspergillus fumigatus = assay: as above; format: cell-based
Protocol: as §2

[15] = system: Candida parapsilosis B66126; assay: as above; format: cell-based
Protocol: as §2

[16] = system: Cryptococcus neoformans B66663; assay: as above; format: cell-based
Protocol: as §2

Candida albicans = assay: as above; format: cell-based; settings: concentration needed to kill 50% of the pathogens
Protocol: as §2

[17] = system: Aspergillus fumigatus B42928; assay: as above; format: cell-based
Protocol: as §2

[18] = system: Candida albicans B59630 (R); assay: as above; format: cell-based
Protocol: as §2

[19] = system: Trichophyton rubrum B68183; assay: as above; format: cell-based
Protocol: as §2

[20] = system: Aspergillus fumigatus B19119; assay: as above; format: cell-based
Protocol: as §2

Trichophyton rubrum = assay: as above; format: cell-based
Protocol: as §2

[21] = system: Trichophyton mentagrophytes B70554; assay: as above; format: cell-based
Protocol: as §2

Sporothrix schenkii = assay: as above; format: cell-based
Protocol: as §2

Cryptococcus neoformans = assay: as above; format: cell-based
Protocol: as §2

[22] = system: Sporothrix schenkii B62482; assay: as above; format: cell-based
Protocol: as §2

Microsporum canis = assay: as above; format: cell-based
Protocol: as §2

SMILES	MIC100 (48 h) [1]	MIC100 (48 h) [2]	MIC100 (48 h) [3]	MIC100 (48 h) [4]	MIC100 (48 h) [5]	MIC100 (48 h) [6]	MIC100 (48 h) [7]	MIC100 (48 h) [8]	MIC100 (48 h) [9]	MIC100 (48 h) [10]	MIC [1]	MIC [2]	MIC [3]	MIC50 [4]	MIC50 [5]	MIC50 [6]	MIC [7]	MIC [8]	MIC50 [9]	MIC50 [10]	also measured
C[C@@H]1[C@H](O)[C@@H](C)/C=C/C=C/C=C/C=C/C=C/C=C/C=C/[C@H](O[C@@H]2O[C@H](C)[C@@H](O)[C@H](N)[C@@H]2O)C[C@@H]2O[C@](O)(C[C@@H](O)C[C@@H](O)[C@H](O)CC[C@@H](O)C[C@@H](O)CC(=O)O[C@H]1C)C[C@H](O)[C@H]2C(=O)O [AMB, amphotericin B]	>8 µg/mL	1 µg/mL (≈ 1.08 µM)	2 µg/mL (≈ 2.16 µM)	0.5 µg/mL (≈ 0.541 µM)	1 µg/mL (≈ 1.08 µM)	0.5 µg/mL (≈ 0.541 µM)	>8 µg/mL	2 µg/mL (≈ 2.16 µM)	1 µg/mL (≈ 1.08 µM)	0.5 µg/mL (≈ 0.541 µM)											time to clear Candida yeast from the bloodstream (median) (Candida yeast): 2 days
CCC(C)n1ncn(-c2ccc(N3CCN(c4ccc(OCC5COC(Cn6cncn6)(c6ccc(Cl)cc6Cl)O5)cc4)CC3)cc2)c1=O (centres unmarked) [ITR, itraconazole]											> 16 µg/mL	0.5 µg/mL (≈ 0.709 µM)	0.5 µg/mL (≈ 0.709 µM)	0.032 µg/mL (≈ 0.0453 µM)	0.25 µg/mL (≈ 0.354 µM)	0.5 µg/mL (≈ 0.709 µM)	0.25 µg/mL (≈ 0.354 µM)	> 16 µg/mL	0.064 µg/mL (≈ 0.0907 µM)	> 16 µg/mL	people with elevated alanine aminotransferase levels [11]: 4%
CCCCCCCC/C=C\CCCCCCCCOP(=O)([O-])OCC[N+](C)(C)C [OlPC, oleyl phosphocholine]	5 µg/mL (≈ 11.5 µM)	10 µg/mL (≈ 23.1 µM)	5 µg/mL (≈ 11.5 µM)	2.5 µg/mL (≈ 5.77 µM)	5 µg/mL (≈ 11.5 µM)	5 µg/mL (≈ 11.5 µM)	10 µg/mL (≈ 23.1 µM)	5 µg/mL (≈ 11.5 µM)	5 µg/mL (≈ 11.5 µM)	2.5 µg/mL (≈ 5.77 µM)											IC50 [12]: 2.55 µM; IC50 [13]: 2.31 µM; IC50 [14]: 7.77 µM; IC50 (Aspergillus fumigatus): 18.8 µM; IC50 [15]: 8 µM; IC50 [16]: 0.5 µM; IC50 (Candida albicans): 7.89 µM; IC50 [17]: 8 µM; IC50 [18]: 8 µM; IC50 [19]: 2 µM; IC50 [20]: 1.87 µM; IC50 (Trichophyton rubrum): 5.87 µM; IC50 [21]: 2 µM; IC50 (Sporothrix schenkii): 8.16 µM; IC50 (Cryptococcus neoformans): 4.5 µM; IC50 [22]: 1.97 µM; IC50 (Microsporum canis): 1.66 µM
C[C@@H](c1ncncc1F)[C@](O)(Cn1cncn1)c1ccc(F)cc1F [VRZ, voriconazole]											16 µg/mL (≈ 45.8 µM)	1 µg/mL (≈ 2.86 µM)	1 µg/mL (≈ 2.86 µM)	0.064 µg/mL (≈ 0.183 µM)	0.5 µg/mL (≈ 1.43 µM)	0.25 µg/mL (≈ 0.716 µM)	0.5 µg/mL (≈ 1.43 µM)	16 µg/mL (≈ 45.8 µM)	0.125 µg/mL (≈ 0.358 µM)	> 16 µg/mL	
